Test results as given in the NIST ThermoML archive (doi:10.1016/j.jct.2012.03.003).

Experiment: xn = mol fraction of the nth substance listed
Details: Liquid, Vibrating tube method

COc1cc2c(cc1O)CC1c3c(cc(O)c(OC)c3-2)CCN1C (stereo not given) [boldine] + CCCO
Details	mass density [kg/m3]
343 K, 1000 kPa, x1 = 0.0018	765.31
343 K, 2000 kPa, x1 = 0.0018	766.28
343 K, 3000 kPa, x1 = 0.0018	767.25
343 K, 4000 kPa, x1 = 0.0018	768.23
343 K, 5000 kPa, x1 = 0.0018	769.21
343 K, 6000 kPa, x1 = 0.0018	770.18
343 K, 7000 kPa, x1 = 0.0018	771.15
343 K, 8000 kPa, x1 = 0.0018	772.11
343 K, 9000 kPa, x1 = 0.0018	773.07
343 K, 10000 kPa, x1 = 0.0018	774.02
343 K, 11000 kPa, x1 = 0.0018	774.96
343 K, 12000 kPa, x1 = 0.0018	775.89
343 K, 13000 kPa, x1 = 0.0018	776.81
343 K, 14000 kPa, x1 = 0.0018	777.73
343 K, 15000 kPa, x1 = 0.0018	778.63
343 K, 16000 kPa, x1 = 0.0018	779.51
343 K, 17000 kPa, x1 = 0.0018	780.4
343 K, 18000 kPa, x1 = 0.0018	781.25
343 K, 19000 kPa, x1 = 0.0018	782.1
343 K, 20000 kPa, x1 = 0.0018	782.93
343.01 K, 1000 kPa, x1 = 0.0077	775.45
343.01 K, 1000 kPa, x1 = 0.0142	786.8
343.01 K, 2000 kPa, x1 = 0.0077	776.42
343.01 K, 2000 kPa, x1 = 0.0142	787.75
343.01 K, 3000 kPa, x1 = 0.0077	777.38
343.01 K, 3000 kPa, x1 = 0.0142	788.7
343.01 K, 4000 kPa, x1 = 0.0077	778.34
343.01 K, 4000 kPa, x1 = 0.0142	789.64
343.01 K, 5000 kPa, x1 = 0.0077	779.31
343.01 K, 5000 kPa, x1 = 0.0142	790.58
343.01 K, 6000 kPa, x1 = 0.0077	780.26
343.01 K, 6000 kPa, x1 = 0.0142	791.54
343.01 K, 7000 kPa, x1 = 0.0077	781.23
343.01 K, 7000 kPa, x1 = 0.0142	792.46
343.01 K, 8000 kPa, x1 = 0.0077	782.18
343.01 K, 8000 kPa, x1 = 0.0142	793.4
343.01 K, 9000 kPa, x1 = 0.0077	783.12
343.01 K, 9000 kPa, x1 = 0.0142	794.32
343.01 K, 10000 kPa, x1 = 0.0077	784.05
343.01 K, 10000 kPa, x1 = 0.0142	795.24
343.01 K, 11000 kPa, x1 = 0.0077	784.98
343.01 K, 11000 kPa, x1 = 0.0142	796.17
343.01 K, 12000 kPa, x1 = 0.0077	785.91
343.01 K, 12000 kPa, x1 = 0.0142	797.07
343.01 K, 13000 kPa, x1 = 0.0077	786.82
343.01 K, 13000 kPa, x1 = 0.0142	797.96
343.01 K, 14000 kPa, x1 = 0.0077	787.72
343.01 K, 14000 kPa, x1 = 0.0142	798.86
343.01 K, 15000 kPa, x1 = 0.0077	788.61
343.01 K, 15000 kPa, x1 = 0.0142	799.72
343.01 K, 16000 kPa, x1 = 0.0077	789.48
343.01 K, 16000 kPa, x1 = 0.0142	800.59
343.01 K, 17000 kPa, x1 = 0.0077	790.35
343.01 K, 17000 kPa, x1 = 0.0142	801.44
343.01 K, 18000 kPa, x1 = 0.0077	791.2
343.01 K, 18000 kPa, x1 = 0.0142	802.3
343.01 K, 19000 kPa, x1 = 0.0077	792.04
343.01 K, 19000 kPa, x1 = 0.0142	803.11
343.01 K, 20000 kPa, x1 = 0.0077	792.86
343.01 K, 20000 kPa, x1 = 0.0142	803.92
343.02 K, 1000 kPa, x1 = 0.0112	782.08
343.02 K, 2000 kPa, x1 = 0.0112	783.03
343.02 K, 3000 kPa, x1 = 0.0112	783.98
343.02 K, 4000 kPa, x1 = 0.0112	784.93
343.02 K, 5000 kPa, x1 = 0.0112	785.88
343.02 K, 6000 kPa, x1 = 0.0112	786.83
343.02 K, 7000 kPa, x1 = 0.0112	787.77
343.02 K, 8000 kPa, x1 = 0.0112	788.71
343.02 K, 9000 kPa, x1 = 0.0112	789.64
343.02 K, 10000 kPa, x1 = 0.0112	790.57
343.02 K, 11000 kPa, x1 = 0.0112	791.49
343.02 K, 12000 kPa, x1 = 0.0112	792.4
343.02 K, 13000 kPa, x1 = 0.0112	793.29
343.02 K, 14000 kPa, x1 = 0.0112	794.19
343.02 K, 15000 kPa, x1 = 0.0112	795.06
